From US20040224972A1, “Medicinal compositions for concomitant use as anticancer agent” (priority 2000, published 2004) come the findings set out here.

Counter-ions that a name gives are not always drawn. Like-named read-outs stand apart in the source and are kept apart here.

In data set [1] the test system is Human colon cancer strain HCT15 xenograft. The data set can be described thus: Combined use of E7070 and MMC in human colon cancer HCT15 xenograft model. In kind it is in vivo. The conditions noted are these: E7070 QDx5, MMC 4.19 mg/kg/day QDx1; for Toxicity mRBW mean (minimum relative body weight): day of minimum in parentheses. (Xenograft models place foreign cells or tissue in a host animal.)
Procedure: Human colon cancer strain HCT15 (purchased from ATCC) was cultured in RPMI1640 (containing 10% FBS) in a 5% CO2gas incubator until it attained about 80% confluence, and the cells were harvested with trypsin-EDTA and suspended in Hanks balanced solution to prepare a suspension of 5×10^7 cells/ml. 0.1 ml of the cell suspension was implanted subcutaneously in each nude mouse. When the average tumor volume reached 156 mm3 after the implantation, E7070 in a dose of 25 mg/kg/day and/or MMC in a dose of 4.19 mg/kg/day were administered either alone or in combination. E7070was intravenously administered once per day for 5 days (first to fifth days), while MMC was intravenously administered once (first day). After the administration was initiated, the longer and shorter diameters of the tumor were measured at the frequency of 2 times/week with digital calipers (Mitsutoyo), and the tumor volume was calculated according to the following equation.
(§1) Tumor volume=longer diameter of tumor (mm)×shorter diameter of tumor (mm)^2/2
(§2) The items for determination of antitumor effect were the following 2 items:

Data set [2] has the same test system. The following applies: E7070 30 mg/kg/day QDx5, CPT-11 75 mg/kg/day Q4Dx3; for Toxicity mRBW mean (minimum relative body weight): day of minimum in parentheses.
Procedure: Human colon cancer strain HCT15 (purchased from ATCC) was cultured in RPMI1640 (containing 10%FBS) in a 5%CO2gas incubator until it attained about 80% confluence, and the cells were harvested with trypsin-EDTA and suspended in Hanks balanced solution to prepare a suspension of 5×10^7 cells/ml. 0.1 ml of the cell suspension was implanted subcutaneously in each nude mouse. When the average tumor volume reached 182 mm3 after the implantation, E7070 in a dose of 30 mg/kg/day and/or CPT-11 in a dose of 75 mg/kg/day were administered either alone or in combination. E7070was intravenously administered once per day for 5 days (first to fifth days), while CPT-11 was intravenously administered 3 times (once every 4 days, that is, on the first, fifth and ninth days). After the administration was initiated, the longer and shorter diameters of the tumor were measured at the frequency of 2 times/week with digital calipers (Mitsutoyo), and the tumor volume was calculated according to the following equation.
as §1, §2
Tx4: The time in days for tumor size to attain 4 folds of initial size.
(§3) Minimum relative tumor volume (mRTV): Minimum value of relative tumor volume (RTV*)
(§4) *: Tumor volume on n days after first treatment/tumor volume at the start of treatment.
The subject of data set [3] is Human colon cancer strain SW620 xenograft. The data set can be described thus: Combined use of E7070 and CPT-11 in human colon cancer SW620 xenograft model. The conditions noted are these: E7070 25 mg/kg/day QDx5, CPT-11 62.5 mg/kg/day Q4Dx3.
Procedure: Human colon cancer strain SW620 (purchased from ATCC) was cultured in RPMI1640 (containing 10% FBS) in a 5% Co2gas incubator until it attained about 80% confluence, and the cells were harvested with trypsin-EDTA and suspended in Hanks balanced solution to prepare a suspension of 5×10^7 cells/ml. 0.1 ml of the cell suspension was implanted subcutaneously in each nude mouse. When the average tumor volume reached 226 mm^3 after the implantation, E7070 in a dose of 25 mg/kg/day and/or CPT-11 in a dose of 62.5 mg/kg/day were administered either alone or in combination. E7070 alone was intravenously administered once per day for 5 days (first to fifth days), while CPT-11 alone was intravenously administered 3 times (once every 4 days, that is, on the first, fifth and ninth days). Administration in combination was performed in 3 schedules, that is, simultaneous administration (E7070 on the first to fifth days; CPT-11 on the first, fifth and ninth days), previous administration of E7070 (E7070 on the first to fifth days; CPT-11 on the sixth, tenth and fourteenth days) and previous administration of CPT-11 (E7070 on the tenth to fourteenth days; CPT-11 on the first, fifth and ninth days). After the administration was initiated, the longer and shorter diameters of the tumor were measured at the frequency of 2 times/week with digital calipers (Mitsutoyo), and the tumor volume was calculated according to the following equation.
as §1, §2, §3, §4
The test system of data set [4] is Human colon cancer strain Colo320D. M. xenograft. As to the kind of experiment: Combined use of E7070 and 5-FU in human colon cancer Colo320D. M. xenograft model. In kind it is in vivo. The conditions noted are these: for Toxicity Dead/Treated: E7070 30 mg/kg/day QDx5, 5-FU 60 mg/kg/day Q4Dx3. The source says: Human colon cancer strain Colo320D.
Data set [5] is described as follows: Examination of gemcitabine hydrochloride, doxorubicin and taxol for synergistic effect (combined with E7070). The following applies: used in the composition with E7070; no data given.
Data set [6] concerns Human breast cancer HBC4 xenograft. The data set can be described thus: Combined use of E7070 and capecitabine in human breast cancer HBC4 xenograft model. Type of data set: in vivo, human cells in nude mouse. The conditions noted are these: nude mice, s.c. HBC4; E7070 30.625 mg/kg/day (87.5% MTD) day 1-5; capecitabine 1.3125 mmol/kg/day (87.5% MTD) 14 days; combination: E7070 day 1-5, capecitabine day 6-19. The protocol: When the average tumor volume reached 114 mm3 after the implantation, E7070 in a dose of 30.625 mg/kg/day and/or capecitabine in a dose of 1.3125 mmol/kg/day were administered either alone or in combination.

For `CO[C@@]12[C@H](COC(N)=O)C3=C(C(=O)C(C)=C(N)C3=O)N1C[C@@H]1N[C@@H]12` [MMC, [1aS-(1aα,8β,8aα,8bα)]-6-amino-8-[[(aminocarbonyl)oxy]methyl]1,1a,2,8,8a,8b-hexahydro-8a-methoxy-5-methylazirino[2′,3′: 3,4]pyrrolo[1,2-a]indole-4,7-dione], in data set [1], the “Toxicity Dead/Treated” value is 0/6 and the “Toxicity mRBW mean (minimum relative body weight)” value was 0.99 (11).
Consider `CCc1c2c(nc3ccc(OC(=O)N4CCC(N5CCCCC5)CC4)cc13)-c1cc3c(c(=O)n1C2)COC(=O)[C@]3(O)CC` [CPT-11, [1,4′-Bipiperidine]-1′-carboxylicacid (S)-4,11-diethyl-3,4,12,14-tetrahydro-4-hydroxy-3,14-dioxo-1H-pyrano-[3′,4′:6,7]-indolizino[1,2-b]quinolin-9-yl ester Hydrochloride trihydrate], for which the “Toxicity Dead/Treated” value in data set [2] and in data set [3] was 0/6 each time. For the same compound, the “Toxicity mRBW mean (minimum relative body weight)” value in data set [2] is given as 0.94 (7, 10); in data set [3] (day of minimum in parentheses), 0.99 (8).
`O=c1[nH]cc(F)c(=O)[nH]1` [5-FU, 5-fluoro-2,4-(1H,3H)-pyrimidinedione]: the “Toxicity Dead/Treated” value in data set [4] is 0/6. In addition, the “Tx4 (days) mean ± S.D.: time in days for tumor size to attain 4 folds of initial tumor size” value in data set [4] (nude mice, s.c. Colo320D. M., E7070 30 mg/kg/day i.v. QDx5, 5-FU 60 mg/kg/day i.v. Q4Dx3, + simultaneous, → sequential) is reported as 10.0 ± 0.7 days.
For `Cl.Nc1ccn([C@@H]2O[C@H](CO)[C@@H](O)C2(F)F)c(=O)n1` [gemcitabine hydrochloride, 2′-deoxy-2′,2′-difluoro-cytidine hydrochloride], the “antitumor activity when examined for synergistic effect” value in data set [5] was “excellent antitumor activity”.
For the compound `NS(=O)(=O)c1ccc(S(=O)(=O)Nc2cccc3c(Cl)c[nH]c23)cc1` [E7070, N-(3-chloro-1H-indol-7-yl)-4-sulfamoylbenzenesulfonamide], the “Toxicity Dead/Treated” value in data set [1], in data set [4], in data set [2] and in data set [3] was 0/6 each time. Further, the “Toxicity mRBW mean (minimum relative body weight)” value is 0.93 (11) in data set [1], 0.92 (7) in data set [2] and 0.98 (8) in data set [3] (day of minimum in parentheses). In addition, the “Tx4” value in data set [6] came out at 50.0 ± 8.1 days. For the same compound, the “mRTV mean ± S.D. (minimum relative tumor volume)” value in data set [3] (day of minimum in parentheses) is listed as 0.76 ± 0.42 (12).
On to `COc1cccc2c1C(=O)c1c(O)c3c(c(O)c1C2=O)C[C@@](O)(C(=O)CO)C[C@@H]3O[C@H]1C[C@H](N)[C@H](O)[C@H](C)O1` [doxorubicin, 10-[(3-amino-2,3,6-trideoxy-α-L-lyxo-hexopyranosyl)oxy]-7,8,9,10-tetrahydro-6,8,11-trihydroxy-8-(hydroxyacetyl)-1-methoxy-(8S-cis)-5,12-naphthacenedione], for which the “antitumor activity when examined for synergistic effect” value in data set [5] is “excellent antitumor activity”.
